# According to ChEMBL document CHEMBL5365452, “Discovery of (S)-N1-(thiazol-2-yl) pyrrolidine-1,2-dicarboxamide derivatives targeting PI3Ka/HDAC6 for the treatment of cancer” (Bioorg Med Chem Lett, 2023):
# Columns and labels:
# [1] = target: Phosphatidylinositol 4,5-bisphosphate 3-kinase catalytic subunit gamma isoform (Homo sapiens, UniProt P48736); experiment: Inhibition of PI3Kgamma (unknown origin)
# [2] = target: T1, Phosphatidylinositol 4,5-bisphosphate 3-kinase catalytic subunit delta isoform (Homo sapiens, UniProt O00329); experiment: Inhibition of PI3Kdelta (unknown origin)
# T1 sequence (O00329 whole entry): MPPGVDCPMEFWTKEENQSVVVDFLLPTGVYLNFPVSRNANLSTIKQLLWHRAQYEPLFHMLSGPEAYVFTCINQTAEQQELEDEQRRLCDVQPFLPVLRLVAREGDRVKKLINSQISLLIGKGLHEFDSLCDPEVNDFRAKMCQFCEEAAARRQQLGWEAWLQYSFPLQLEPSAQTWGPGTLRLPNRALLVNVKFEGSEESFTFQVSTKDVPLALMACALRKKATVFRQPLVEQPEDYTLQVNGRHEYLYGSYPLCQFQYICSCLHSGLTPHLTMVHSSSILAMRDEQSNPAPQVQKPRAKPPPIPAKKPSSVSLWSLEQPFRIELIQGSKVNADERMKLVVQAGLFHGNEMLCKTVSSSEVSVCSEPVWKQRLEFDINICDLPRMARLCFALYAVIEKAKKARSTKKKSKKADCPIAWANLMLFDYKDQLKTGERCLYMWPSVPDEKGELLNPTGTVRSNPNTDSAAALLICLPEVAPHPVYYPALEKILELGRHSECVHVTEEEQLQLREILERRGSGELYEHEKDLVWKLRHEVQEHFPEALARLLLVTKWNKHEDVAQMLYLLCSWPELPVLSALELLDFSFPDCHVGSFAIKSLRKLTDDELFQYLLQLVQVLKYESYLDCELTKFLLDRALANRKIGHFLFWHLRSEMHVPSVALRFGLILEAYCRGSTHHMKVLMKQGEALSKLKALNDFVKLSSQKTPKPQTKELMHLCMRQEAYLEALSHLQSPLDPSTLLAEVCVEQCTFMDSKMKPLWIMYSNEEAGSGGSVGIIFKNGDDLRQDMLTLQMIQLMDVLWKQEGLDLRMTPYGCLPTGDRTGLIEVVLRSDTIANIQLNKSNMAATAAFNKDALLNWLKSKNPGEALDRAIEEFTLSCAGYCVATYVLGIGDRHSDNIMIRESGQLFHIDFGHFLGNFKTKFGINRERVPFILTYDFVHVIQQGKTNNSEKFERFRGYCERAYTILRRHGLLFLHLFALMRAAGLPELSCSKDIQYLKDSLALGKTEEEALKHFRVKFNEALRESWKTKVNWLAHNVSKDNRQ
# [3] = target: T2, Histone deacetylase 11 (Homo sapiens, UniProt Q96DB2); experiment: Inhibition of HDAC11 (unknown origin)
# T2 sequence (Q96DB2 whole entry): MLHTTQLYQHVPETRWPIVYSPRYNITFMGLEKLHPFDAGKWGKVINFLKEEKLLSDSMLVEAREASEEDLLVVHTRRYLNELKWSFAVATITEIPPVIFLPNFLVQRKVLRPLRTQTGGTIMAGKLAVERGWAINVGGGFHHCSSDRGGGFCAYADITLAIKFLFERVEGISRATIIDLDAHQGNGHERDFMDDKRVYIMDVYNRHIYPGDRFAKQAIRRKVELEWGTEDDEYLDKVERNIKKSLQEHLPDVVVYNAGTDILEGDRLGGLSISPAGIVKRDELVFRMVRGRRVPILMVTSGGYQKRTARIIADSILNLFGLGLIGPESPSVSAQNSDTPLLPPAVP
# [4] = target: T3, Histone deacetylase 8 (Homo sapiens, UniProt Q9BY41); experiment: Inhibition of HDAC8 (unknown origin)
# T3 sequence (Q9BY41 whole entry): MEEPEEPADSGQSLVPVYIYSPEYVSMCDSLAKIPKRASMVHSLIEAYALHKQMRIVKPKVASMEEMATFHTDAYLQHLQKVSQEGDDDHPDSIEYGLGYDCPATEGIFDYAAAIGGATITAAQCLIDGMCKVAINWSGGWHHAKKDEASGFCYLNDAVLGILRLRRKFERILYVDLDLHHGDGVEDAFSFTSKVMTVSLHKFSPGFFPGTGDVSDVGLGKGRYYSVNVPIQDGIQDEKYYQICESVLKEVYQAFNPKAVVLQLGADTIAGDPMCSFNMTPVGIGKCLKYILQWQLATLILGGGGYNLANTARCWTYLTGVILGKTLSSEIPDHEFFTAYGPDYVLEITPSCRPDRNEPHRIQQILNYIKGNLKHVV
# [5] = target: Histone deacetylase 1 (Homo sapiens, UniProt Q13547); experiment: Inhibition of HDAC1 (unknown origin)
# [6] = target: Phosphatidylinositol 4,5-bisphosphate 3-kinase catalytic subunit beta isoform (Homo sapiens, UniProt P42338); experiment: Inhibition of PI3Kbeta (unknown origin)
# [7] = system: MCF7; experiment: Antiproliferative activity against human MCF7 cells
# [8] = system: L-363; experiment: Antiproliferative activity against human L-363 cells
# [9] = system: T47D; experiment: Antiproliferative activity against human T47D cells
# Histone deacetylase 1, sequence (Q13547 whole entry, canonical isoform): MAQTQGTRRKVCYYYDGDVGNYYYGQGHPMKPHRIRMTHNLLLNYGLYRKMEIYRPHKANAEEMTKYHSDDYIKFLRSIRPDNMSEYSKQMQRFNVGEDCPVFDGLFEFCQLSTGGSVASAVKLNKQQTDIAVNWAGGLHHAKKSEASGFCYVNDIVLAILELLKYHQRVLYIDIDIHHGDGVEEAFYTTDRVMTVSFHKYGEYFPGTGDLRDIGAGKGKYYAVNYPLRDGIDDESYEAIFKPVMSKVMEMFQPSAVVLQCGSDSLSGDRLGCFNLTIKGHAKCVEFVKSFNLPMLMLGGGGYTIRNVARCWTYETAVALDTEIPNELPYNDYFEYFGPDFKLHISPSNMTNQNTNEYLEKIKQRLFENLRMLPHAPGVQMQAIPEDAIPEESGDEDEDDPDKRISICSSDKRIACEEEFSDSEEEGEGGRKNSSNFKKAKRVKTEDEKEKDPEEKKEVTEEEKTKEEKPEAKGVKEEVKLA
# Phosphatidylinositol 4,5-bisphosphate 3-kinase catalytic subunit gamma isoform, sequence (P48736 whole entry, canonical isoform): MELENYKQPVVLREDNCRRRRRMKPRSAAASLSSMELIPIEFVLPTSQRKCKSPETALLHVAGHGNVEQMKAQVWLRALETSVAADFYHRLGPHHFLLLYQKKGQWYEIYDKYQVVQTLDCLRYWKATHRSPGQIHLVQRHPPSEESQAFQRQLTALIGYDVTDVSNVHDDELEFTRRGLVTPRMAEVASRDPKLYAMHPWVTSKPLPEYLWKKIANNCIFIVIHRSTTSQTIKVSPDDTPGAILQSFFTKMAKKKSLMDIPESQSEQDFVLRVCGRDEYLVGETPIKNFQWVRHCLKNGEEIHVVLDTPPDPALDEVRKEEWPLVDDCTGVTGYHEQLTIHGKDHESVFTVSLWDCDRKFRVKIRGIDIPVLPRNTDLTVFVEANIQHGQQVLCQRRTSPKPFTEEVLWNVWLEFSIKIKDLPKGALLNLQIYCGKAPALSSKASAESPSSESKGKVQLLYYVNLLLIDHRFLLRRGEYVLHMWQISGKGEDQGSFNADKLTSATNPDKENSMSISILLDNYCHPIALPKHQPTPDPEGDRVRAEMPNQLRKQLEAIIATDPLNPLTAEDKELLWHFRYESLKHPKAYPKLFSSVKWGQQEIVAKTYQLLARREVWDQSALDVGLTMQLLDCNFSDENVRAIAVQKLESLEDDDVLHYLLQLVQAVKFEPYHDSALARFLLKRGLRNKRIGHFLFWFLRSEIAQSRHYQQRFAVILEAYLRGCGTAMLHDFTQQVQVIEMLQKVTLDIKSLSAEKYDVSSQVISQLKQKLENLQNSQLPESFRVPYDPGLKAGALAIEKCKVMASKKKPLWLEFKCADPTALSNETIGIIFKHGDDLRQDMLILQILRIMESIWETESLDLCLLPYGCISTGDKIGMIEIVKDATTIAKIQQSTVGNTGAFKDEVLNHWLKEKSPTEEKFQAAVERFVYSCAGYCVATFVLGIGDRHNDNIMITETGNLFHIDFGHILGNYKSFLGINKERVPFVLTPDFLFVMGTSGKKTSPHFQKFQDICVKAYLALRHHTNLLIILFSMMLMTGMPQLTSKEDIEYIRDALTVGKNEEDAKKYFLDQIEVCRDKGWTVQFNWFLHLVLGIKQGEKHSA
# Phosphatidylinositol 4,5-bisphosphate 3-kinase catalytic subunit beta isoform, sequence (P42338 whole entry, canonical isoform): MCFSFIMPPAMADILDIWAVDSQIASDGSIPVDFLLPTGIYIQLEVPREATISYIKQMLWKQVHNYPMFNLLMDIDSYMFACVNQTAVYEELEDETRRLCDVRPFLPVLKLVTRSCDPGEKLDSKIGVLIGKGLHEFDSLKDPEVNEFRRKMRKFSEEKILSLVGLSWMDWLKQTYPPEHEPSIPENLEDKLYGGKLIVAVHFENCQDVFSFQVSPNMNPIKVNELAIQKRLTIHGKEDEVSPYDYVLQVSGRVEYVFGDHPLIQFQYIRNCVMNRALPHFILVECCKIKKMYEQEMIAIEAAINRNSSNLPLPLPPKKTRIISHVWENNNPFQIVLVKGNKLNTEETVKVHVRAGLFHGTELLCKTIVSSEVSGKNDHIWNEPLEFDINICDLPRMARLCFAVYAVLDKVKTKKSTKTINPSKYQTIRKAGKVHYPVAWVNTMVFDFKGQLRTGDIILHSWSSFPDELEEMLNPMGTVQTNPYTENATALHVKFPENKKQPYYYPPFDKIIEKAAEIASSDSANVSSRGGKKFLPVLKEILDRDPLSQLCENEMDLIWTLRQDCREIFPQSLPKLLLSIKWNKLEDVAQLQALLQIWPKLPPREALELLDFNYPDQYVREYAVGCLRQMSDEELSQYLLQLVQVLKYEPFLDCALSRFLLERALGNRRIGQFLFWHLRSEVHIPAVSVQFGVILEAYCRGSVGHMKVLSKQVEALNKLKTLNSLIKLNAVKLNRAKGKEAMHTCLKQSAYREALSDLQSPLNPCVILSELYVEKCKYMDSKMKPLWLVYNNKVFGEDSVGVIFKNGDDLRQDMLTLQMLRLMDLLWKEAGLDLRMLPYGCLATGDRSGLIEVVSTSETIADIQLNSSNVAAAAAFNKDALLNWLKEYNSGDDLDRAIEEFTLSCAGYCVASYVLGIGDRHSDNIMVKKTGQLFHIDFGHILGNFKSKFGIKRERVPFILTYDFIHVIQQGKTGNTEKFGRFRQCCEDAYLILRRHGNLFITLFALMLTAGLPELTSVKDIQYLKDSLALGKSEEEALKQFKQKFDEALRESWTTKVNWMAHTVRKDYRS
Compound,IC50 [1] [nM],IC50 [2] [nM],IC50 [3] [nM],IC50 [4] [nM],IC50 [5] [nM],IC50 [6] [nM],IC50 [7] [nM],IC50 [8] [nM],IC50 [9] [nM]
Cc1nc(NC(=O)N2C[C@H](NC(=O)c3ccc(C(=O)NO)cn3)C[C@H]2C(N)=O)sc1-c1ccnc(C(C)(C)C(F)(F)F)c1,318,214,> 2000,> 2000,471,> 1000,,,
Cc1nc(NC(=O)N2C[C@H](NS(=O)(=O)Cc3ccc(C(=O)NO)cc3)C[C@H]2C(N)=O)sc1-c1ccnc(C(C)(C)C(F)(F)F)c1,285,42,586,> 2000,> 2000,880,,,
Cc1nc(NC(=O)N2CCC[C@H]2C(N)=O)sc1-c1ccnc(C(C)(C)C(F)(F)F)c1 [ALPELISIB],,,,,,,250,260,2300
O=C(CCCCCCC(=O)Nc1ccccc1)NO [VORINOSTAT],,,,,,,3560,,
